Laboratory results published in US20220306630A1, “AGONISTS OF ROR GAMMAt” (BRISTOL-MYERS SQUIBB COMPANY, priority 2019, published 2022).

Biological target: T1, RORgT (Homo sapiens, UniProt P51449)
T1 construct: Gal4 (fusion partner); expressed in transfected cells; host or cells: engineered Jurkat cells (Jurkat pEx/Gal/hRORγ CLBD/HYG pG5luc/blast)
T1 sequence (P51449 267-516): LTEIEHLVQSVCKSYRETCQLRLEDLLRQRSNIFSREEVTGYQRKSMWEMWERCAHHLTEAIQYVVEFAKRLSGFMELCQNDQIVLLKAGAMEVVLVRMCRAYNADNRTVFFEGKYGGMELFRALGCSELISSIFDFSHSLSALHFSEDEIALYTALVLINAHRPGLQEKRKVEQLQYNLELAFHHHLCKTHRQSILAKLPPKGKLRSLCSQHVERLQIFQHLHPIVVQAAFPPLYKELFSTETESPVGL
Experiment: RORgT Gal4 Luciferase Reporter Gene Assay
Type: cell-based
Settings: engineered Jurkat cells overexpressing RORgT (LBD or full length) with Gal4 Luc reporter; 18 hours at 37° C.; 40 μM to 0.67 nM; read-out: RORg_GAL4 EC50
Procedure, shortened: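 Cells exposed to compound 18 hours at 37° C, then lysed for luciferase luminescence. Inhibition of constitutive activity expressed as percent reduction of signal window relative to a control compound.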

EC50: 6.6 nM
SMILES: C=C(C)c1cc(F)cc(Oc2c(Cl)cc(NC(=O)CC3CCN(S(C)(=O)=O)CC3)cc2Cl)c1 [Example 358]
